Measurements: US10800792B2, “Inhibitors of Bruton's tyrosine kinase and method of their use” (JANSSEN PHARMACEUTICA NV, priority 2015, dated 2020)

target: unphosphorylated-BTK kinase domain (UP-BTK), GST-tagged human BTK (389-659aa) (Homo sapiens (Human), UniProt Q06187); experiment: BTK kinase Lanthascreen binding assay; conditions: Lanthascreen tracer competition, 60 minutes incubation; pIC50 = negative log of the IC50 in molar
Procedure, shortened: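 Tracer-displacement binding assay against the non-phosphorylated enzyme, read by Lanthascreen. Reported: pIC50.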

unphosphorylated-BTK kinase domain (UP-BTK), GST-tagged human BTK (389-659aa), sequence (Q06187 389-659): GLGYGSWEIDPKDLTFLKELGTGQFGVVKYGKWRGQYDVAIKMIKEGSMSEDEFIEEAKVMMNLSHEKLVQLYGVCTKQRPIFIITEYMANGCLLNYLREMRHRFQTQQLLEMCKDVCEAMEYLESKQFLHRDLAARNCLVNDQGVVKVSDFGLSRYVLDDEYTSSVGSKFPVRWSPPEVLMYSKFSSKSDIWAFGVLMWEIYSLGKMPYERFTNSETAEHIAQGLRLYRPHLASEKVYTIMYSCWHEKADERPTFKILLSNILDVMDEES

SMILES | BTK_I_binding pIC50
N#C/C(=C\C1CC1)C(=O)N1CCCC(NC(=O)c2sc3nccc4c3c2NC(=O)N4c2cccc(Oc3ccccc3)c2)C1 (stereo not shown) [Example 851, (E)-N-(1-(2-Cyano-3-cyclopropylacryloyl)piperidin-3-yl)-4-oxo-5-(3-phenoxyphenyl)-4,5-dihydro-3H-1-thia-3,5,8-triazaacenaphthylene-2-carboxamide] | 7.5
C=CC(=O)N1CC[C@@H](NC(=O)c2sc3nccc4c3c2NC(=O)N4c2cccc(-c3cccc(F)c3F)c2)C1 [Example 673, (R)—N-(1-Acryloylpyrrolidin-3-yl)-5-(2′,3′-difluoro-[1,1′-biphenyl]-3-yl)-4-oxo-4,5-dihydro-3H-1-thia-3,5,8-triazaacenaphthylene-2-carboxamide] | 8.2
Cc1c(N2C(=O)Nc3c(C(=O)N[C@@H]4CCCNC4)sc4nccc2c34)ccnc1-c1ccccc1 [Example 733, (R)-5-(3-Methyl-2-phenylpyridin-4-yl)-4-oxo-N-(piperidin-3-yl)-4,5-dihydro-3H-1-thia-3,5,8-triazaacenaphthylene-2-carboxamide] | <6
Cc1cc(Oc2ccccc2)ccc1N1C(=O)Nc2c(NC(=O)C3CCN(C#N)CC3)sc3nccc1c23 [Example 822, 1-Cyano-N-(5-(2-methyl-4-phenoxyphenyl)-4-oxo-4,5-dihydro-3H-1-thia-3,5,8-triazaacenaphthylen-2-yl)piperidine-4-carboxamide] | 5.8
C=CC(=O)N1CCC[C@@H](NC(=O)c2sc3nccc4c3c2NC(=O)N4c2ncc(Oc3ccccc3)cn2)C1 [Example 665, (R)—N-(1-Acryloylpiperidin-3-yl)-4-oxo-5-(5-phenoxypyrimidin-2-yl)-4,5-dihydro-3H-1-thia-3,5,8-triazaacenaphthylene-2-carboxamide] | 7.8
CC(C)(C)OC(=O)N1CCC(NC(=O)c2sc3nccc4c3c2NC(=O)N4c2ccc(Oc3ccccc3)cc2)CC1 [Example 627, tert-Butyl 4-(4-oxo-5-(4-phenoxyphenyl)-4,5-dihydro-3H-1-thia-3,5,8-triazaacenaphthylene-2-carboxamido)piperidine-1-carboxylate] | 5.9
C=CC(=O)N1CCC[C@@H](NC(=O)c2sc3nccc4c3c2NC(=O)N4c2ccc(OC(C)C)nc2C)C1 (single isomer, unassigned) [Example 757, (R)—N-(1-Acryloylpiperidin-3-yl)-5-(*R)-(6-isopropoxy-2-methylpyridin-3-yl)-4-oxo-4,5-dihydro-3H-1-thia-3,5,8-triazaacenaphthylene-2-carboxamide] | <6
CCC(=O)N1CCCC(C(=O)Nc2sc3nccc4c3c2NC(=O)N4c2ccc(Oc3ccccc3)cc2C)C1 (stereo not shown) [Example 818, N-(5-(2-Methyl-4-phenoxyphenyl)-4-oxo-4,5-dihydro-3H-1-thia-3,5,8-triazaacenaphthylen-2-yl)-1-propionylpiperidine-3-carboxamide] | 5.9

same assay, conditions: pIC50 = negative log of the IC50 in molar; 60 minutes incubation, 50 nM Tracer 236

SMILES | BTK_I_binding pIC50
Cc1cc(Oc2ccccc2)ccc1N1C(=O)Nc2c(C(=O)N[C@@H]3CCCN(C(=O)/C(C#N)=C\C(C)(C)N(C)C)C3)sc3nccc1c23 [Example 134, (R,Z)—N-(1-(2-Cyano-4-(dimethylamino)-4-methylpent-2-enoyl)piperidin-3-yl)-5-(2-methyl-4-phenoxyphenyl)-4-oxo-4,5-dihydro-3H-1-thia-3,5,8-triazaacenaphthylene-2-carboxamide] | 7.1
COCC(C)C(=O)N1CCC[C@@H](NC(=O)c2sc3nccc4c3c2NC(=O)N4c2ccc(Oc3ccccc3)cc2C)C1 (stereo partly drawn) [Example 158, N-((3R)-1-(3-Methoxy-2-methylpropanoyl)piperidin-3-yl)-5-(2-methyl-4-phenoxyphenyl)-4-oxo-4,5-dihydro-3H-1-thia-3,5,8-triazaacenaphthylene-2-carboxamide] | 7.1
Cc1cc(OC(C)C)ccc1N1C(=O)Nc2c(C(=O)N[C@@H]3CCCN(C(=O)/C(C#N)=C/C4CC4)C3)sc3nccc1c23 [Example 102, (R,E)-N-(1-(2-Cyano-3-cyclopropylacryloyl)piperidin-3-yl)-5-(4-isopropoxy-2-methylphenyl)-4-oxo-4,5-dihydro-3H-1-thia-3,5,8-triazaacenaphthylene-2-carboxamide] | 7.5
C=CC(=O)N1CC[C@@H](NC(=O)c2sc3nccc4c3c2NC(=O)N4c2ccc(CC)cc2C)C1 [Example 119, (R)—N-(1-Acryloylpyrrolidin-3-yl)-5-(4-ethyl-2-methylphenyl)-4-oxo-4,5-dihydro-3H-1-thia-3,5,8-triazaacenaphthylene-2-carboxamide] | 6.6
Cc1cc(Oc2ccccc2)ccc1N1C(=O)Nc2c(C(=O)N[C@@H]3CCN(C(=O)CCS(C)(=O)=O)C3)sc3nccc1c23 [Example 104, (R)-5-(2-Methyl-4-phenoxyphenyl)-N-(1-(3-(methylsulfonyl)propanoyl)pyrrolidin-3-yl)-4-oxo-4,5-dihydro-3H-1-thia-3,5,8-triazaacenaphthylene-2-carboxamide] | 7.7

same assay, conditions: unphosphorylated-BTK kinase domain, 50 nM Tracer 236, 60 minutes; pIC50 = negative log of the IC50 in molar

SMILES | BTK_I_binding pIC50
CNCC(=O)N1CCC[C@@H](NC(=O)c2sc3nccc4c3c2NC(=O)N4c2cccc(-c3ccccc3)c2)C1 [Example 551, (R)-5-([1,1′-Biphenyl]-3-yl)-N-(1-(2-(methylamino)acetyl)piperidin-3-yl)-4-oxo-4,5-dihydro-3H-1-thia-3,5,8-triazaacenaphthylene-2-carboxamide] | 6.8
Cc1cc(Oc2ccccc2)ccc1N1C(=O)Nc2c(C(=O)N[C@@H]3CCN(C(=O)/C(C#N)=C/C4CC4)C3)sc3nccc1c23 (single isomer, unassigned) [Example 491, (R,E)-N-(1-(2-Cyano-3-cyclopropylacryloyl)pyrrolidin-3-yl)-5-(*S)-(2-methyl-4-phenoxyphenyl)-4-oxo-4,5-dihydro-3H-1-thia-3,5,8-triazaacenaphthylene-2-carboxamide] | 7.6
Cc1ccc(N2C(=O)Nc3c(C(=O)N[C@@H]4CCCNC4)sc4nccc2c34)cc1Cl [Example 460, (R)-5-(3-Chloro-4-methylphenyl)-4-oxo-N-(piperidin-3-yl)-4,5-dihydro-3H-1-thia-3,5,8-triazaacenaphthylene-2-carboxamide] | 5.3
C=CC(=O)N1CC[C@@H](NC(=O)c2sc3nccc4c3c2NC(=O)N4c2ccc(OC)cc2C)C1 [Example 299, (R)—N-(1-Acryloylpyrrolidin-3-yl)-5-(4-methoxy-2-methylphenyl)-4-oxo-4,5-dihydro-3H-1-thia-3,5,8-triazaacenaphthylene-2-carboxamide] | 6.1
C=CC(=O)N1CCC[C@@H](NC(=O)c2sc3nccc4c3c2NC(=O)N4c2ccc(OC3CCC3)cc2)C1 [Example 457, (R)—N-(1-Acryloylpiperidin-3-yl)-5-(4-cyclobutoxyphenyl)-4-oxo-4,5-dihydro-3H-1-thia-3,5,8-triazaacenaphthylene-2-carboxamide] | 7.6
C=CC(=O)N1CCC[C@@H](NC(=O)c2sc3nccc4c3c2NC(=O)N4c2cccc(C(F)(F)F)c2)C1 [Example 288, (R)—N-(1-Acryloylpiperidin-3-yl)-4-oxo-5-(3-(trifluoromethyl)phenyl)-4,5-dihydro-3H-1-thia-3,5,8-triazaacenaphthylene-2-carboxamide] | 6.2
CCC(=O)N1CCC[C@@H](NC(=O)c2sc3nccc4c3c2NC(=O)N4c2ccc(OC(C)C)cc2)C1 [Example 406, (R)-5-(4-Isopropoxyphenyl)-4-oxo-N-(1-propionylpiperidin-3-yl)-4,5-dihydro-3H-1-thia-3,5,8-triazaacenaphthylene-2-carboxamide] | 5.2
Cc1cc(Oc2ccccc2)ccc1N1C(=O)Nc2c(C(=O)N[C@H]3CNC(=O)C3)sc3nccc1c23 (single isomer, unassigned) [Example 471, (*R)-5-(*S)-(2-Methyl-4-phenoxyphenyl)-4-oxo-N-(5-oxopyrrolidin-3-yl)-4,5-dihydro-3H-1-thia-3,5,8-triazaacenaphthylene-2-carboxamide] | 5.9

same assay, conditions: unphosphorylated-BTK kinase domain, 50 nM Tracer 236, 60 minutes; pIC50 = negative log of the IC50 in molar; read-out: BTK_I_binding pIC50 (converted)

SMILES | IC50 [nM]
[2H]c1c([2H])c([2H])c(Oc2ccc(N3C(=O)Nc4c(C(=O)N[C@@H]5CCCN(C(=O)/C(C#N)=C/C6CC6)C5)sc5nccc3c45)c(C)c2)c([2H])c1[2H] [Example 378, (R,E)-N-(1-(2-Cyano-3-cyclopropylacryloyl)piperidin-3-yl)-5-(2-methyl-4-(2,3,4,5,6-pentadeuteriophenoxy)phenyl)-4-oxo-4,5-dihydro-3H-1-thia-3,5,8-triazaacenaphthylene-2-carboxamide] | 31.6

same assay, conditions: unphosphorylated-BTK kinase domain, 60 minutes incubation, 50 nM Tracer 236; pIC50 = negative log of the IC50 in molar

SMILES | BTK_I_binding pIC50
COc1ccccc1Oc1ccc(N2C(=O)Nc3c(C(=O)NC4CCCN(C)C4)sc4nccc2c34)c(C)c1 (stereo not shown) [Example 907, 5-(4-(2-Methoxyphenoxy)-2-methylphenyl)-N-(1-methylpiperidin-3-yl)-4-oxo-4,5-dihydro-3H-1-thia-3,5,8-triazaacenaphthylene-2-carboxamide] | 6.7
Cc1ccccc1N1C(=O)Nc2c(C(=O)N[C@H]3CCCN(C(=O)/C(C#N)=C/C4CC4)C3)sc3nccc1c23 [Example 942, (S,E)-N-(1-(2-Cyano-3-cyclopropylacryloyl)piperidin-3-yl)-4-oxo-5-(o-tolyl)-4,5-dihydro-3H-1-thia-3,5,8-triazaacenaphthylene-2-carboxamide] | 5.6
CN1CCN(CCNC(=O)c2sc3nccc4c3c2NC(=O)N4c2ccc(Oc3ccccc3)cc2)CC1 [Example 935, N-(2-(4-Methylpiperazin-1-yl)ethyl)-4-oxo-5-(4-phenoxyphenyl)-4,5-dihydro-3H-1-thia-3,5,8-triazaacenaphthylene-2-carboxamide] | 6.0
